Measured values taken from patent publication US12077503B2, “Substituted cyclic amides and their use as herbicides” (FMC CORPORATION, priority 2015, dated 2024).

Key:
Assay type in all cases: in vivo
[1] = test system: ivy-leaved morning glory (Ipomoea hederacea); assay: Test G Post-Emergence Protocol; settings: Ipomoea, post-emergence, 312 h
In short: (§1)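 Damage was rated 13 days after treatment from 0 (none) to 100 (plant killed). Compound was applied as a spray at 15.625, 62.5 or 250 g/ha in 50:50 acetone/water containing 0.5% Tween 20, onto 8-day-old potted plants kept in a glasshouse (24/16 °C, 14 h light, 65% humidity).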

corn (Zea mays) [2] = assay: Test G Post-Emergence Protocol; settings: Zea mays, post-emergence, 312 h
In short: as §1

[3] = test system: velvetleaf (Abutilon theophrasti); assay: Test G Post-Emergence Protocol; settings: Abutilon theophrasti, post-emergence, 312 h
In short: as §1

[4] = test system: giant foxtail (Setaria faberi); assay: Test G Post-Emergence Protocol; settings: Setaria faberi, post-emergence, 312 h
In short: as §1

[5] = test system: redroot pigweed (Amaranthus retroflexus); assay: Test G Post-Emergence Protocol; settings: Amaranthus retroflexus, post-emergence, 312 h
In short: as §1

[6] = test system: barnyardgrass (Echinochloa crus-galli); assay: Test G Post-Emergence Protocol; settings: Echinochloa crus-galli, post-emergence, 312 h
In short: as §1

[7] = test system: ivy-leaved morning glory (Ipomoea hederacea); assay: Test G Pre-Emergence Protocol; settings: Ipomoea, pre-emergence, 312 h, evaluated after 13 days
In short: (§2)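 Under a 24/16° C day/night regime with 14 h light and 65% humidity, sown pots were sprayed after one day with compound (15.625, 62.5 or 250 g/ha; 50:50 acetone/water, 0.5% Tween 20). Damage was assessed visually 13 days later, 0 to 100.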

corn (Zea mays) [8] = assay: Test G Pre-Emergence Protocol; settings: Zea mays, pre-emergence, 312 h, evaluated after 13 days
In short: as §2

[9] = test system: velvetleaf (Abutilon theophrasti); assay: Test G Pre-Emergence Protocol; settings: Abutilon theophrasti, pre-emergence, 312 h, evaluated after 13 days
In short: as §2

[10] = test system: giant foxtail (Setaria faberi); assay: Test G Pre-Emergence Protocol; settings: Setaria faberi, pre-emergence, 312 h, evaluated after 13 days
In short: as §2

[11] = test system: redroot pigweed (Amaranthus retroflexus); assay: Test G Pre-Emergence Protocol; settings: Amaranthus retroflexus, pre-emergence, 312 h, evaluated after 13 days
In short: as §2

[12] = test system: barnyardgrass (Echinochloa crus-galli); assay: Test G Pre-Emergence Protocol; settings: Echinochloa crus-galli, pre-emergence, 312 h, evaluated after 13 days
In short: as §2

Cc1nnc(NC(=O)[C@@H]2C(=O)N(C)C[C@H]2c2ccc(C(F)(F)F)cc2)nc1C (racemic) [Compound 1549]
0%: pest or weed control at 15.625 g/ha ([1]; 15.625 g ai/ha, evaluated after 13 days (100=total damage to plant; 0=no damage to plant), read-out: Morningglory, Ivy-leaved damage rating) | pest or weed control at 62.5 g/ha ([1]; 62.5 g ai/ha, evaluated after 13 days, read-out: Morningglory, Ivy-leaved damage rating (100=total damage to plant; 0=no damage to plant)) | pest or weed control at 250 g/ha ([1]; 250 g ai/ha, evaluated after 13 days, read-out: damage to plant, Morningglory, Ivy-leaved (100=total damage to plant; 0=no damage to plant)) | plant injury at 15.625 g/ha (corn (Zea mays) [2]; 15.625 g ai/ha, evaluated after 13 days (100=total damage to plant; 0=no damage to plant), read-out: Corn damage rating) | plant injury at 62.5 g/ha (corn (Zea mays) [2]; 62.5 g ai/ha, evaluated after 13 days, read-out: Corn damage rating (100=total damage to plant; 0=no damage to plant)) | plant injury at 250 g/ha (corn (Zea mays) [2]; 250 g ai/ha, evaluated after 13 days, read-out: damage to plant, Corn (100=total damage to plant; 0=no damage to plant)) | pest or weed control at 15.625 g/ha ([3]; 15.625 g ai/ha, evaluated after 13 days (100=total damage to plant; 0=no damage to plant), read-out: Velvetleaf damage rating) | pest or weed control at 62.5 g/ha ([3]; 62.5 g ai/ha, evaluated after 13 days, read-out: Velvetleaf damage rating (100=total damage to plant; 0=no damage to plant)) | pest or weed control at 250 g/ha ([3]; 250 g ai/ha, evaluated after 13 days, read-out: damage to plant, Velvetleaf (100=total damage to plant; 0=no damage to plant)) | pest or weed control at 15.625 g/ha ([4]; 15.625 g ai/ha, evaluated after 13 days (100=total damage to plant; 0=no damage to plant), read-out: Foxtail, Giant damage rating) | pest or weed control at 62.5 g/ha ([4]; 62.5 g ai/ha, evaluated after 13 days, read-out: Foxtail, Giant damage rating (100=total damage to plant; 0=no damage to plant)) | pest or weed control at 250 g/ha ([4]; 250 g ai/ha, evaluated after 13 days, read-out: damage to plant, Foxtail, Giant (100=total damage to plant; 0=no damage to plant)) | pest or weed control at 15.625 g/ha ([5]; 15.625 g ai/ha, evaluated after 13 days (100=total damage to plant; 0=no damage to plant), read-out: Pigweed, Redroot damage rating) | pest or weed control at 62.5 g/ha ([5]; 62.5 g ai/ha, evaluated after 13 days, read-out: Pigweed, Redroot damage rating (100=total damage to plant; 0=no damage to plant)) | pest or weed control at 250 g/ha ([5]; 250 g ai/ha, evaluated after 13 days, read-out: damage to plant, Pigweed, Redroot (100=total damage to plant; 0=no damage to plant)) | pest or weed control at 15.625 g/ha ([6]; 15.625 g ai/ha, evaluated after 13 days (100=total damage to plant; 0=no damage to plant), read-out: Barnyardgrass damage rating) | pest or weed control at 62.5 g/ha ([6]; 62.5 g ai/ha, evaluated after 13 days, read-out: Barnyardgrass damage rating (100=total damage to plant; 0=no damage to plant)) | pest or weed control at 250 g/ha ([6]; 250 g ai/ha, evaluated after 13 days, read-out: damage to plant, Barnyardgrass (100=total damage to plant; 0=no damage to plant)) | pest or weed control at 15.625 g/ha ([7]; 15.625 g ai/ha, read-out: Morning-glory, Ivy-leaved damage rating (100=total damage to plant; 0=no damage to plant)) | pest or weed control at 62.5 g/ha ([7]; 62.5 g ai/ha, 100=total damage to plant, 0=no damage to plant, read-out: plant damage rating, Morningglory, Ivy-leaved) | pest or weed control at 250 g/ha ([7]; 250 g ai/ha, read-out: Morningglory, Ivy-leaved damage rating (100=total damage to plant; 0=no damage to plant)) | plant injury at 15.625 g/ha (corn (Zea mays) [8]; 15.625 g ai/ha, read-out: Corn damage rating (100=total damage to plant; 0=no damage to plant)) | plant injury at 62.5 g/ha (corn (Zea mays) [8]; 62.5 g ai/ha, 100=total damage to plant, 0=no damage to plant, read-out: plant damage rating, Corn) | plant injury at 250 g/ha (corn (Zea mays) [8]; 250 g ai/ha, read-out: Corn damage rating (100=total damage to plant; 0=no damage to plant)) | pest or weed control at 15.625 g/ha ([9]; 15.625 g ai/ha, read-out: Velvetleaf damage rating (100=total damage to plant; 0=no damage to plant)) | pest or weed control at 62.5 g/ha ([9]; 62.5 g ai/ha, 100=total damage to plant, 0=no damage to plant, read-out: plant damage rating, Velvetleaf) | pest or weed control at 250 g/ha ([9]; 250 g ai/ha, read-out: Velvetleaf damage rating (100=total damage to plant; 0=no damage to plant)) | pest or weed control at 15.625 g/ha ([10]; 15.625 g ai/ha, read-out: Foxtail, Giant damage rating (100=total damage to plant; 0=no damage to plant)) | pest or weed control at 62.5 g/ha ([10]; 62.5 g ai/ha, 100=total damage to plant, 0=no damage to plant, read-out: plant damage rating, Foxtail, Giant) | pest or weed control at 250 g/ha ([10]; 250 g ai/ha, read-out: Foxtail, Giant damage rating (100=total damage to plant; 0=no damage to plant)) | pest or weed control at 15.625 g/ha ([11]; 15.625 g ai/ha, read-out: Pigweed, Redroot damage rating (100=total damage to plant; 0=no damage to plant)) | pest or weed control at 62.5 g/ha ([11]; 62.5 g ai/ha, 100=total damage to plant, 0=no damage to plant, read-out: plant damage rating, Pigweed, Redroot) | pest or weed control at 250 g/ha ([11]; 250 g ai/ha, read-out: Pigweed, Redroot damage rating (100=total damage to plant; 0=no damage to plant)) | pest or weed control at 15.625 g/ha ([12]; 15.625 g ai/ha, read-out: Barnyard grass damage rating (100=total damage to plant; 0=no damage to plant)) | pest or weed control at 62.5 g/ha ([12]; 62.5 g ai/ha, 100=total damage to plant, 0=no damage to plant, read-out: plant damage rating, Barnyardgrass) | pest or weed control at 250 g/ha ([12]; 250 g ai/ha, read-out: Barnyardgrass damage rating (100=total damage to plant; 0=no damage to plant))
